Values joined by “and” are separate entries in the source; they are usually repeats but may differ in a detail not shown here. Identical values can stand only once.
How the values were obtained:
[1] = tested on: cultured satellite cells; experiment: Flow cytometry of CXCR4 and β-1 Integrin on cultured satellite cells; format: cell-based, mouse; conditions: after 5 days in culture, FACS
Method: FIG. 5C, GFP^+ satellite cells were harvested from β-actin GFP mice and were transplanted into TA muscle of recipient mdx mice, injured 1 day previously by injection of cardiotoxin, either right after isolation or after five days in culture with DMSO or forskolin treatment. […] Scale bars represent 200 μm.
Flow cytometry analysis was performed using a BD LSR II, provided through the Harvard Stem Cell Institute Flow Cytometry Core Facility. Flow cytometry data were collected using DIVA (Becton Dickinson (BD), Franklin Lakes, N.J.) software and analyzed offline using Flowjo software (Tree Star, Inc., Macintosh version 8.1.1, Ashland, Oreg.). Antibodies used for flow cytometry included: APC/Cy7 anti-mouse Ter119, clone Ter119 (1:200, Biolegend 116223), APC/Cy7 anti-mouse CD45, clone 30-F11 (1:200, Biolegend 103116), APC/Cy7 anti-mouse CD11b, clone M1/70 (1:200, Biolegend 101226), APC Anti-mouse Ly-6A/E (Sca-1), clone D7 (1:200, Biolegend 108112), Biotin anti-mouse CD184 (CXCR4, Fusin) (1:100, BD Biosciences 551968), Streptavidin PE-Cy7 (1:100, eBioscience 25-4317-82), PE anti-mouse/rat CD29 Antibody (1:100, Biolegend 102208). Live cells were identified by positive staining with calcein blue (1:1000) (Invitrogen, Carlsbad, Calif.) and negative staining for propidium iodide (PI, 1 μg/mL). […]

[2] = tested on: cAMP levels in mouse satellite cell cultures; experiment: cAMP-Glo assay in cultured satellite cells; format: cell-based
Method: cAMP assay was performed using the cAMP-Glo™ Assay kit (Promega) according to the manufacturer's protocol.
To test forskolin's effect on satellite cell survival and proliferation, single cells were plated at one cell per well in 96-well plates and treated with forskolin or DMSO. After six days in vitro culture, we quantified the number of wells containing any number of myogenic cells (a measure of cell survival) and the number of cells in those wells (a measure of cell proliferation) (FIG. 3D).

[3] = tested on: satellite cells from C57BL/6J mice; experiment: In vitro expansion of mouse satellite cells (cell count); format: cell-based; conditions: 5 days in culture
Method: (§1) SMP isolation was performed as previously described (Cerletti et al., 2008; Sherwood et al., 2004). Briefly, MFA cells were prepared from intact skeletal muscles (EDL, gastrocnemius, quadriceps, soleus, TA, triceps brachii, abdominal) by digesting the muscles with collagenase type II and then dispase enzymes. MFA cells were stained for isolation of CD45^−Sca-1^−Mac-1^−CXCR4^+ b1-integrin^+ cell population by FACS. For in vitro expansion experiments, SMPs were seeded on collagen/laminin-coated plates in F10 (Gibco) containing 20% horse serum (Atlanta Biologics), 1% penicillin-streptomycin (Invitrogen) and 1% glutamax (Invitrogen). […] Cells were counted or used for transplantation after 5 days in culture. For Myogenic colony formation assay cells were fixed and counted after 6 days in culture. […]
(§2) Cultured SMPs were fixed in 4% paraformaldehyde (PFA) and stained with 10 μg/ml Hoechst (Invitrogen). […] The images were analyzed and numbers of cells were counted by the built-in software. […] The images were analyzed and percentage of nuclei in myotubes was calculated using a modified ImageJ macro developed in-house. […]
(§3) We hypothesized that the chemical hits enhancing skeletal muscle development in zebrafish blastomeres may likewise promote muscle precursor cell formation and/or expansion in other species. […] Cell number in the resulting colonies was determined after 5 days in culture.

[4] = tested on: satellite cells from mdx mice; experiment: In vitro expansion of mdx satellite cells (cell count); format: cell-based, mouse; conditions: 5 days in culture
Method: as §1, §2, §3

SMILES: C=C[C@@]1(C)CC(=O)[C@]2(O)[C@@]3(C)[C@@H](O)CCC(C)(C)[C@@H]3[C@H](O)[C@H](OC(C)=O)[C@@]2(C)O1 [forskolin]
- frequency of cells co-expressing CXCR4 and β-1 Integrin [1]: 78.9%+/−1.52% and ~80%
- concentration of cAMP, fold increase compared to DMSO treated cells ([2]; 25 μM forskolin): ~4.5 fold
- concentration of cAMP, fold increase compared to DMSO treated cells ([2]; 50 μM forskolin): ~5.2 fold
- concentration of cAMP, fold increase compared to DMSO treated cells ([2]; 100 μM forskolin): ~5.7 fold
- total number of cells, fold change compared to DMSO treated cells ([3]; absence of bFGF): ~2 folds
- total number of cells, fold change compared to DMSO treated cells ([3]; presence of bFGF): ~2.3 folds
- fold change of number of satellite cells compared to DMSO [4]: ~3.6 folds

— patent US9771560B2, “High-throughput image-based chemical screening in zebrafish blastomere cell culture” (CHILDREN'S MEDICAL CENTER CORPORATION, priority 2012, dated 2017)
